Laboratory results taken from ChEMBL document CHEMBL4364276, “Discovery of 4-phenyl-2H-benzo[b][1,4]oxazin-3(4H)-one derivatives as potent and orally active PI3K/mTOR dual inhibitors” (Eur J Med Chem, 2019).

Experiments:
[1] = Oral bioavailability in Sprague-Dawley rat at 10 mg/kg measured upto 24 hrs by LC-MS/MS analysis; type: ADME, organism-based; conditions: in vivo
[2] = target: Serine/threonine-protein kinase A-Raf (Homo sapiens) (UniProt P10398); assay: Inhibition of human ARAF at 100 nM using MEK1 as substrate by [gamma-33P]-ATP assay
[3] = target: Mitogen-activated protein kinase kinase kinase 10 (Homo sapiens) (UniProt Q02779); assay: Inhibition of human MLK2 at 100 nM using MBP as substrate by [gamma-33P]-ATP assay
[4] = target: BDNF/NT-3 growth factors receptor (Homo sapiens) (UniProt Q16620); assay: Inhibition of human TRKB at 100 nM using poly[Glu:Tyr] (4:1) as substrate by [gamma-33P]-ATP assay
[5] = target: PAS domain-containing serine/threonine-protein kinase (Homo sapiens) (UniProt Q96RG2); assay: Inhibition of human PASK at 100 nM using KKLNRTLSFAEPG as substrate by [gamma-33P]-ATP assay
[6] = target: Kinase suppressor of Ras 2 (Homo sapiens) (UniProt Q6VAB6); assay: Inhibition of human KSR2 at 100 nM using KRREILSRRPSYR as substrate by [gamma-33P]-ATP assay
[7] = target: Dual specificity tyrosine-phosphorylation-regulated kinase 3 (Homo sapiens) (UniProt O43781); assay: Inhibition of human DYRK3 at 100 nM using RRRFRPASPLRGPPK as substrate by [gamma-33P]-ATP assay
[8] = target: Insulin receptor-related protein (Homo sapiens) (UniProt P14616); assay: Inhibition of human IRR at 100 nM using MBP as substrate by [gamma-33P]-ATP assay
[9] = target: Tyrosine-protein kinase Fgr (Homo sapiens) (UniProt P09769); assay: Inhibition of human FGR at 100 nM using poly[Glu:Tyr] (4:1) as substrate by [gamma-33P]-ATP assay
[10] = target: Serine/threonine-protein kinase WNK2 (Homo sapiens) (UniProt Q9Y3S1); assay: Inhibition of human WNK2 at 100 nM using MBP as substrate by [gamma-33P]-ATP assay
[11] = target: Serine/threonine-protein kinase mTOR (Homo sapiens, UniProt P42345); assay: Inhibition of human mTOR at 100 nM using 4EBP1 as substrate by [gamma-33P]-ATP assay
[12] = target: Mitogen-activated protein kinase 7 (Homo sapiens) (UniProt Q13164); assay: Inhibition of human ERK5 at 100 nM using MBP as substrate by [gamma-33P]-ATP assay
[13] = target: Ribosomal protein S6 kinase alpha-1 (Homo sapiens) (UniProt Q15418); assay: Inhibition of human RSK1 at 100 nM using KKLNRTLSVA as substrate by [gamma-33P]-ATP assay
[14] = target: Cyclin-Y/Cyclin-dependent kinase 16 (Homo sapiens) (UniProt Q00536+Q8ND76); assay: Inhibition of human CDK16/cyclin-Y at 100 nM using RB protein as substrate by [gamma-33P]-ATP assay; type: protein-complex assay
[15] = target: MAP kinase-activated protein kinase 3 (Homo sapiens) (UniProt Q16644); assay: Inhibition of human MAPKAPK3 at 100 nM using KKLNRTLSVA as substrate by [gamma-33P]-ATP assay
[16] = target: Dual specificity mitogen-activated protein kinase kinase 1 (Homo sapiens) (UniProt Q02750); assay: Inhibition of human MEK1 at 100 nM using ERK2 as substrate by [gamma-33P]-ATP assay
[17] = target: High affinity nerve growth factor receptor (Homo sapiens) (UniProt P04629); assay: Inhibition of human TRKA at 100 nM using poly[Glu:Tyr] (4:1) as substrate by [gamma-33P]-ATP assay
[18] = target: G protein-coupled receptor kinase 3 (Homo sapiens) (UniProt P35626); assay: Inhibition of human GRK3 at 100 nM using casein as substrate by [gamma-33P]-ATP assay
[19] = target: CDK6/cyclin D1 (Homo sapiens) (UniProt P24385+Q00534); assay: Inhibition of human CDK6/cyclin-D1 at 100 nM using RB protein as substrate by [gamma-33P]-ATP assay; type: protein-complex assay
[20] = target: Ribosomal protein S6 kinase alpha-5 (Homo sapiens) (UniProt O75582); assay: Inhibition of human MSK1 at 100 nM using GRPRTSSFAEG as substrate by [gamma-33P]-ATP assay
[21] = target: Serine/threonine-protein kinase NLK (Homo sapiens) (UniProt Q9UBE8); assay: Inhibition of human NLK at 100 nM using MBP as substrate by [gamma-33P]-ATP assay
[22] = target: Serine/threonine-protein kinase TAO2 (Homo sapiens) (UniProt Q9UL54); assay: Inhibition of human TAOK2 at 100 nM using MBP as substrate by [gamma-33P]-ATP assay
[23] = target: Testis-specific serine/threonine-protein kinase 1 (Homo sapiens) (UniProt Q9BXA7); assay: Inhibition of human STK22D at 100 nM using KKKVSRSGLYRSPSMPENLNRPR as substrate by [gamma-33P]-ATP assay
[24] = target: Tyrosine-protein kinase TXK (Homo sapiens) (UniProt P42681); assay: Inhibition of human TXK at 100 nM using EAIYAAPFAKKK as substrate by [gamma-33P]-ATP assay
[25] = target: Wee1-like protein kinase (Homo sapiens) (UniProt P30291); assay: Inhibition of human WEE1 at 100 nM using MBP as substrate by [gamma-33P]-ATP assay
[26] = target: CDK2/Cyclin-E2 (Homo sapiens) (UniProt P24941+O96020); assay: Inhibition of human CDK2/cyclin-E2 at 100 nM using histone H1 as substrate by [gamma-33P]-ATP assay; type: protein-complex assay
[27] = target: Serine/threonine-protein kinase 3 (Homo sapiens) (UniProt Q13188); assay: Inhibition of human MST2 at 100 nM using MBP as substrate by [gamma-33P]-ATP assay
[28] = target: Tyrosine-protein kinase Srms (Homo sapiens) (UniProt Q9H3Y6); assay: Inhibition of human SRMS at 100 nM using poly[Glu:Tyr] (4:1) as substrate by [gamma-33P]-ATP assay
[29] = target: Inactive tyrosine-protein kinase PEAK1 (Homo sapiens) (UniProt Q9H792); assay: Inhibition of human PEAK1 at 100 nM using MBP as substrate by [gamma-33P]-ATP assay
[30] = target: Serine/threonine-protein kinase 17A (Homo sapiens) (UniProt Q9UEE5); assay: Inhibition of human DRAK1 at 100 nM using KKLNRTLSFAEPG as substrate by [gamma-33P]-ATP assay
[31] = target: Tyrosine-protein kinase ABL1 (Homo sapiens) (UniProt P00519); assay: Inhibition of human ABL1 at 100 nM using EAIYAAPFAKKK as substrate by [gamma-33P]-ATP assay
Sequence of Tyrosine-protein kinase ABL1 (Homo sapiens) (P00519 whole entry): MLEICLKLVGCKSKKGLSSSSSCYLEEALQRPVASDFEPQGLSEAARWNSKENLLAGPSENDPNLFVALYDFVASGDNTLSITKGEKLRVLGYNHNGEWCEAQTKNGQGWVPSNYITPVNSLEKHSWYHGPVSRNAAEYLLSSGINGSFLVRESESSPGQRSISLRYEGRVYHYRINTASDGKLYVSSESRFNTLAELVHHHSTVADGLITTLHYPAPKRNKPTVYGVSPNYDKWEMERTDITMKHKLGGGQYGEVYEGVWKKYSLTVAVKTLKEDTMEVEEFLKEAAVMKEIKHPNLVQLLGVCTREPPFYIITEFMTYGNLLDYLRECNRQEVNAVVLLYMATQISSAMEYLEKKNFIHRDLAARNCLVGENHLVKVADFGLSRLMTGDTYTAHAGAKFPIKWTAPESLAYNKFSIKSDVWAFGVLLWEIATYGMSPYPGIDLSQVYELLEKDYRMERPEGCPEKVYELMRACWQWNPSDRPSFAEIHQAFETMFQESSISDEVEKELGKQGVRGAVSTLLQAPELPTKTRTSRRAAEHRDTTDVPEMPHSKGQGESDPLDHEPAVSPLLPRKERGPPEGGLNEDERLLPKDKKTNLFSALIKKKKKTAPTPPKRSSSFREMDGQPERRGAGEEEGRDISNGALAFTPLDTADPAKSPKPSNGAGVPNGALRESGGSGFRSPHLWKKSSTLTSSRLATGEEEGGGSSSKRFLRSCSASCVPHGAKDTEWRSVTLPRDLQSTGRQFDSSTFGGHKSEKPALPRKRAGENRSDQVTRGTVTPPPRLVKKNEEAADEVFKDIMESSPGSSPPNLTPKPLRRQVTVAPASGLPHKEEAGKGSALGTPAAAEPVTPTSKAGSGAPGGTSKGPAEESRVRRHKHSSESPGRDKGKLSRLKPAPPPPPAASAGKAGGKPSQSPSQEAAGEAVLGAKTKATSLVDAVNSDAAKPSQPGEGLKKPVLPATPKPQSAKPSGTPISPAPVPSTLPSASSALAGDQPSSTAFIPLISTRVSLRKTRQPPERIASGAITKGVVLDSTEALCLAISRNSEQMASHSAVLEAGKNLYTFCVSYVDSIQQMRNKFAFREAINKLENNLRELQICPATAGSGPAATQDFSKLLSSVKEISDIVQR

Sequence of Dual specificity tyrosine-phosphorylation-regulated kinase 3 (Homo sapiens) (O43781 whole entry): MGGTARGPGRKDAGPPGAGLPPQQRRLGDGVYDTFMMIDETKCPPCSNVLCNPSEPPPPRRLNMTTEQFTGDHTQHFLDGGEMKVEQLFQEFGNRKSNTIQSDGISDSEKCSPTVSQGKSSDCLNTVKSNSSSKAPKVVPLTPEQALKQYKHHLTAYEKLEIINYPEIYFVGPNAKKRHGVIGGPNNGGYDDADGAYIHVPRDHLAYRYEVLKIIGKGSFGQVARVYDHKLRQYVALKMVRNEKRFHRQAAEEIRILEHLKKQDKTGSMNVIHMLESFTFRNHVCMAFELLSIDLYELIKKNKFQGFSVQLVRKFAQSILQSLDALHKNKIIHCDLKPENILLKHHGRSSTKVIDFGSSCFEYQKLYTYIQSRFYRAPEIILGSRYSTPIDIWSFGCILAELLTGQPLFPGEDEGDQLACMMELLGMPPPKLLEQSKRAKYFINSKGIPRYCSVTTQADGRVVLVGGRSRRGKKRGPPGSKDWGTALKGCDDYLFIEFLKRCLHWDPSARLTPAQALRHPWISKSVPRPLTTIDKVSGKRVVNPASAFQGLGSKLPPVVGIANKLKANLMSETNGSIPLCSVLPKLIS
Sequence of BDNF/NT-3 growth factors receptor (Homo sapiens) (Q16620 32-822 limits assumed): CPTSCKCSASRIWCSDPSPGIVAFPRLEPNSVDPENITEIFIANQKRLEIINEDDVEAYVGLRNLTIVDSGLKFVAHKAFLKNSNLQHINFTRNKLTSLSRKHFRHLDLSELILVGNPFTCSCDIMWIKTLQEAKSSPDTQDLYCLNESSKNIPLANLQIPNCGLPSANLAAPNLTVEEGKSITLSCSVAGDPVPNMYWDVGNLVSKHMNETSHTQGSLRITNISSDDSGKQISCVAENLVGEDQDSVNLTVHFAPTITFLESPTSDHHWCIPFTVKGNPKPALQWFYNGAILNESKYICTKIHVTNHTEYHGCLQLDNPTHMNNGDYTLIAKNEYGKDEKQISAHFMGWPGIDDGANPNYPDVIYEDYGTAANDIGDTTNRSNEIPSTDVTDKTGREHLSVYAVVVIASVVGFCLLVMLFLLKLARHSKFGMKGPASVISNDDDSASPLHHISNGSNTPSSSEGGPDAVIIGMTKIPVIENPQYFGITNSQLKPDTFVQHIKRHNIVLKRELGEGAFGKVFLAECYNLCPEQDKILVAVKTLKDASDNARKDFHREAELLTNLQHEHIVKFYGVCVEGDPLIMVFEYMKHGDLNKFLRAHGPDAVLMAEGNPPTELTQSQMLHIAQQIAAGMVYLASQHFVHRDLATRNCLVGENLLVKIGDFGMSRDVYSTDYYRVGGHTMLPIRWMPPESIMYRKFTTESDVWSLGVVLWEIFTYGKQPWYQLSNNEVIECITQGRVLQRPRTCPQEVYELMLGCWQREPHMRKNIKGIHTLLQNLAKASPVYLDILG
Sequence of Serine/threonine-protein kinase WNK2 (Homo sapiens) (Q9Y3S1 whole entry): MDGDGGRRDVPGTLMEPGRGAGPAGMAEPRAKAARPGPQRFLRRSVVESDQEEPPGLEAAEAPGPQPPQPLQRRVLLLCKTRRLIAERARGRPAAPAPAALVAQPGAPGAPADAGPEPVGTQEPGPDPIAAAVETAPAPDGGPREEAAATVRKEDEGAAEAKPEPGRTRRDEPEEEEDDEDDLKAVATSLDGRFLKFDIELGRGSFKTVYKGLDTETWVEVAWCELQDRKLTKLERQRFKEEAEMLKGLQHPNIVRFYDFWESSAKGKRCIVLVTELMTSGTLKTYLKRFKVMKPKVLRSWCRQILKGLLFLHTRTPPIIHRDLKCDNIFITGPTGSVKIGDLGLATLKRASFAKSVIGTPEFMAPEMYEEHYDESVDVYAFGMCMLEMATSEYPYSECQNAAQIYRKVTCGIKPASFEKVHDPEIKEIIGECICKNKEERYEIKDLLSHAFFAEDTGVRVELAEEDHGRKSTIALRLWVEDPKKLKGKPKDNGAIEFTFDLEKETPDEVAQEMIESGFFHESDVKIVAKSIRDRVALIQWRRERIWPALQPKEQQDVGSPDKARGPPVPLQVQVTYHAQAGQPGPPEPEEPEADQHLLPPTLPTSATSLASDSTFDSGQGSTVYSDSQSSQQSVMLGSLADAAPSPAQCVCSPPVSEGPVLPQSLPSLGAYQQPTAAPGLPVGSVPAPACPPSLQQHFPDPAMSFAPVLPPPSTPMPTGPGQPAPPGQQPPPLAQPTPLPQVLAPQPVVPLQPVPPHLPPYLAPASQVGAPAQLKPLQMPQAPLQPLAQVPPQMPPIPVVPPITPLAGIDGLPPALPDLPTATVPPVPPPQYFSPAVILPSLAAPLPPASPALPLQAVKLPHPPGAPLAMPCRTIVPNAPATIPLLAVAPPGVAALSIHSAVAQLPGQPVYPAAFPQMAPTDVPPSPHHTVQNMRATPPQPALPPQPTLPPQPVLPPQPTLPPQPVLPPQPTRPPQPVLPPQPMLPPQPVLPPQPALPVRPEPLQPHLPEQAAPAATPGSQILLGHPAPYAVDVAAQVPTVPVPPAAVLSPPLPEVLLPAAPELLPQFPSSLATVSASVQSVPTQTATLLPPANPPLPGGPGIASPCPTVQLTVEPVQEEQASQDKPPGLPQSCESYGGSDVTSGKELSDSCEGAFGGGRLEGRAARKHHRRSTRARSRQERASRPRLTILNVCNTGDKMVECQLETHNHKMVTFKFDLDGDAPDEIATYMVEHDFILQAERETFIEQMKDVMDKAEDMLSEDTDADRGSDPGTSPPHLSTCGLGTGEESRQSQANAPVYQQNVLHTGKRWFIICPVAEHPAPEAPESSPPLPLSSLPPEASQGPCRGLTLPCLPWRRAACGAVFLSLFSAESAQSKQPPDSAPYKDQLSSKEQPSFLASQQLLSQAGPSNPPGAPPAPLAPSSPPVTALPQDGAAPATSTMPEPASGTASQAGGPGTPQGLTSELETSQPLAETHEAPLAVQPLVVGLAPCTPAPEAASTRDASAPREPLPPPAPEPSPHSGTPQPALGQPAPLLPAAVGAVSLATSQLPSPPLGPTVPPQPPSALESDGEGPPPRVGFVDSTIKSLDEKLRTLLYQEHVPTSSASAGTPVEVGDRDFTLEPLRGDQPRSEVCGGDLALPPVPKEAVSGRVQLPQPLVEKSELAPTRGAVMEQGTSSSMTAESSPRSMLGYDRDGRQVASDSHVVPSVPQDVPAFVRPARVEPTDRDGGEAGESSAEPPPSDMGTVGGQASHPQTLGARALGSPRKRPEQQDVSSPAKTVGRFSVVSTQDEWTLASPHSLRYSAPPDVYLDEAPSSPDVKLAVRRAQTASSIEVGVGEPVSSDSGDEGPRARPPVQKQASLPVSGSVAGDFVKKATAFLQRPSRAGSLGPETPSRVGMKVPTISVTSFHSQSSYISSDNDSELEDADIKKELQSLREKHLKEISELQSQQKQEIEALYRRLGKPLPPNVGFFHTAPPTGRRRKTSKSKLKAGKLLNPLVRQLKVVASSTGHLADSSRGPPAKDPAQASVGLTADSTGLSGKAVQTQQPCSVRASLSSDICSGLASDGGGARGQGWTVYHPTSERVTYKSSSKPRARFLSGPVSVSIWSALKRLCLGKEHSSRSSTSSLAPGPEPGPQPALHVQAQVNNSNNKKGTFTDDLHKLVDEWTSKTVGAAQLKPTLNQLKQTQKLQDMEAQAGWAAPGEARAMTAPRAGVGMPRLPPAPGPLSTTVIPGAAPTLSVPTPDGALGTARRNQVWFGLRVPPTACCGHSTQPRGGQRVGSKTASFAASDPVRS

Structure (SMILES): COc1ccc(N2C(=O)COc3ccc(-c4cnc(OC)c(NS(=O)(=O)c5ccc(F)cc5)c4)cc32)cc1
- bioavailability [1]: 24.1%
- inhibition [2]: 0.31%
- inhibition [3]: -1.63%
- inhibition [4]: -0.11%
- inhibition [5]: -2.91%
- inhibition [6]: 20.8%
- inhibition [7]: -8.14%
- inhibition [8]: 14.4%
- inhibition [9]: 5.02%
- inhibition [10]: 2.82%
- inhibition [11]: 67.5%
- inhibition [12]: -7.53%
- inhibition [13]: 10.8%
- inhibition [14]: 0.27%
- inhibition [15]: 12.8%
- inhibition [16]: 1.42%
- inhibition [17]: 5.12%
- inhibition [18]: -4.85%
- inhibition [19]: 9.71%
- inhibition [20]: 8.07%
- inhibition [21]: 10.8%
- inhibition [22]: -3.9%
- inhibition [23]: -6.47%
- inhibition [24]: 9.62%
- inhibition [25]: 6.18%
- inhibition [26]: -7.8%
- inhibition [27]: -8.9%
- inhibition [28]: 14.2%
- inhibition [29]: 4.84%
- inhibition [30]: 0.44%
- inhibition [31]: 1.19%
